Data as given in patent US11780821B2, “Inhibitors of fibroblast activation protein” (Praxis Biotech LLC, priority 2017, dated 2023).
Where two headings read alike, the source gives them in different places.

Assays:
[1] = molecular target: T1, circulating FAPα from hamster plasma (Mesocricetus auratus, UniProt A0ABM2XF29); experiment: Ex vivo inhibition of circulating FAPα activity from hamster plasma; type: biochemical, Golden Syrian hamster
T1 sequence (A0ABM2XF29 24-761): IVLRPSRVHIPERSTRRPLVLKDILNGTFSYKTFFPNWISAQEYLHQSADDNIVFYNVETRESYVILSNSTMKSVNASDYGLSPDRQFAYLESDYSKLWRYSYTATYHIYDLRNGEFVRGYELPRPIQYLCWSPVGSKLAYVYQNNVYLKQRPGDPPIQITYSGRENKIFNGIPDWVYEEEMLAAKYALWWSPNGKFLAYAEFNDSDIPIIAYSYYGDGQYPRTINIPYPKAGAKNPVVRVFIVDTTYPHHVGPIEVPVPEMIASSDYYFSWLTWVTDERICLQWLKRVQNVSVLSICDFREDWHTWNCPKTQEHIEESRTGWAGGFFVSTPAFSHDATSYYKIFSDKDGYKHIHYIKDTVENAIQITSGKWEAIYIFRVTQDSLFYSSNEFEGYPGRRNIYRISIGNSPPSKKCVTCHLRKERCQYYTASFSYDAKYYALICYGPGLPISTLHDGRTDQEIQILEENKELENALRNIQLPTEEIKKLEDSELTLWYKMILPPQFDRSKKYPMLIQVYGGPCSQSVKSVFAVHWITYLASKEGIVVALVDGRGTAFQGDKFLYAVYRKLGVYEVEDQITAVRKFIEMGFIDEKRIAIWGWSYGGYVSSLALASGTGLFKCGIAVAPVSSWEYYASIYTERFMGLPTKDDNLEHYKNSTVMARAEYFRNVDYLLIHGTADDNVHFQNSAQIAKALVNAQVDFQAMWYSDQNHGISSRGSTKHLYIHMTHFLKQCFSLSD
Description: Male Golden Syrian hamsters were provided by National Laboratory Animal Center (NLAC) in Taiwan. The animals were maintained in a hygienic environment under controlled temperature (20-24° C.) and humidity (50%-80%) with 12 hours light/dark cycles. Free access to standard lab diet [MFG (Oriental Yeast Co., Ltd. Japan)] and autoclaved tap water were granted. All aspects of this work including housing, experimentation and disposal of animals were performed in general accordance with the “Guide for the Care and Use of Laboratory Animals: Eighth Edition” (National Academies Press, Washington, D.C., 2011). In addition, the animal care and use protocol was reviewed and approved by the IACUC at Pharmacology Discovery Services Taiwan, Ltd. Immediately after the sacrifice of hamsters, blood samples were collected via terminal cardiac puncture in tubes coated with EDTA-K2, mixed gently, then kept on ice and centrifuged at 2,500×g for 15 minutes at 4° C. After plasma separation, samples were stored at −80° C. in aliquots of 300 μL.
To assay exemplary compounds in hamster plasma, a similar protocol as described for human plasma was performed diluting thawed plasma 1:2 in cFAP buffer. In a 96-well black plate, 5 μl of diluted hamster plasma were mixed with 35 μl of the same buffer and 10 μl of exemplary test compounds at different concentrations or vehicle (DMSO).
Exemplary test compounds were allowed to interact with the enzyme for 15 minutes at 37° C. After pre-incubation, 50 μl of 200 μM PRXS-AMC substrate were added to the all mixtures. All reactions were carried out for 1 h at 37° C. protected from light. AMC release was detected measuring fluorescence at an excitation/emission wavelength of 380/460 nm using a Multifunction Microplate Reader. All measurements were carried out as single point.

[2] = molecular target: T2, recombinant human FAPα (rhFAPα) (Homo sapiens, UniProt Q12884); experiment: FAPα enzymatic endopeptidase (collagenase) activity assay; type: biochemical; conditions: DQ collagen substrate, read-out: rhFAPα (endo IC50)
T2 construct: purchased R&S system (so in the source)
T2 sequence (Q12884 1-760): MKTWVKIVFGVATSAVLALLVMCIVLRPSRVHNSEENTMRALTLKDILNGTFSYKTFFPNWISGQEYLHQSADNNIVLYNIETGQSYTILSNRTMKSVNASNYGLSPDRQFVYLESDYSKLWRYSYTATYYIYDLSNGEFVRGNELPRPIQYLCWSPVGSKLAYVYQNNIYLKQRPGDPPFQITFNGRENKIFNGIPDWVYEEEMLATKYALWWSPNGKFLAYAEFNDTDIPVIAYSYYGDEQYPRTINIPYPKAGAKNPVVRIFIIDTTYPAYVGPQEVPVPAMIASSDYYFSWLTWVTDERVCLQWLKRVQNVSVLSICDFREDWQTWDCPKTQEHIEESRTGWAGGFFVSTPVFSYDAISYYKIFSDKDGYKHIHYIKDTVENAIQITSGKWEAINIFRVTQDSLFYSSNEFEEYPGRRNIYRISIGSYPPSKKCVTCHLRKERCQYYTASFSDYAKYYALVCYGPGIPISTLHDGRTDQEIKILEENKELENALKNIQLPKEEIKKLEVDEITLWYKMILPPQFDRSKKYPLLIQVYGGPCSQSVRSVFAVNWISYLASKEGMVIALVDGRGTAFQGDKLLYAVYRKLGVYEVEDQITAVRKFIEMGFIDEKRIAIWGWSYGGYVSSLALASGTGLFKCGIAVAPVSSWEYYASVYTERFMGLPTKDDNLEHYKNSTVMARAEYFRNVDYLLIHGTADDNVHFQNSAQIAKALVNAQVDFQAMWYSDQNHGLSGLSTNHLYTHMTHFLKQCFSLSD
Description: FAPα enzymatic endopeptidase (collagenase) activity assay. […] All measurements were performed as a single point.

[3] = molecular target: T3, recombinant mouse DPPIV (rmDPPIV) (Mus musculus, UniProt P28843); experiment: DPPIV enzymatic activity assay; type: biochemical; conditions: H-Gly-Pro-pNA substrate
T3 construct: purchased R&S system (so in the source)

[4] = read-out: FAPα activity in hamster plasma (PRXS-AMC) IC50, PRXS-AMC substrate
[5] = PRXS-AMC substrate, read-out: FAPα activity in hamster plasma (PRXS-AMC) IC50

T3 sequence (P28843 whole entry): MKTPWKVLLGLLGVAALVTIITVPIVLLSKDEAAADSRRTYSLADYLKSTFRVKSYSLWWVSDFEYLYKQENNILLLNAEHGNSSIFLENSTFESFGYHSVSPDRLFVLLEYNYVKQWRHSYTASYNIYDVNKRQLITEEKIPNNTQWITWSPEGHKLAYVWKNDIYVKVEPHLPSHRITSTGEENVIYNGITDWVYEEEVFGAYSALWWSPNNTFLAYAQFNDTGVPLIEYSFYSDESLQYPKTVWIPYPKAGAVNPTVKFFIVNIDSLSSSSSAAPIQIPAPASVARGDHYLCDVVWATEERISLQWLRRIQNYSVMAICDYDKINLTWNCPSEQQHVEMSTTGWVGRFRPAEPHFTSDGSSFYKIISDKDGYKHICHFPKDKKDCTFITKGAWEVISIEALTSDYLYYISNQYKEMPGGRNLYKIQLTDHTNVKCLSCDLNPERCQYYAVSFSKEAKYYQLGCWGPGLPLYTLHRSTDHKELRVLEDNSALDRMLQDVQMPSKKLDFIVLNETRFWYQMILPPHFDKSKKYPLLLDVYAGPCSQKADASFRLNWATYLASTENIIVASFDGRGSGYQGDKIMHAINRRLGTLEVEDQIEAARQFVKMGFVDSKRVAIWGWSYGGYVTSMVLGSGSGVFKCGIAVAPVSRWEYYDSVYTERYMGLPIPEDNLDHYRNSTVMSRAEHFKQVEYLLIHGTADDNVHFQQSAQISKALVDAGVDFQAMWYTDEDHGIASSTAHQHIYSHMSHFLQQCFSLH

IC50 [3] [µM]	SMILES	IC50 [1, 4] [µM]	IC50 [2] [µM]	IC50 [1, 5] [µM]
	N#C[C@@H]1CC(F)(F)CN1C(=O)CNC(=O)c1ccncc1C1=CCNCC1 [Compound 105, (S)—N-(2-(2-cyano-4,4-difluoropyrrolidin-1-yl)-2-oxoethyl)-1′,2′,3′,6′-tetrahydro-[3,4′-bipyridine]-4-carboxamide 2,2,2-trifluoroacetate]	< 1	< 1	
> 10	N#C[C@@H]1CC(F)(F)CN1C(=O)CNC(=O)c1c[nH]c(=O)c(-c2ccccc2)c1 [Compound 14, (S)—N-(2-(2-cyano-4,4-difluoropyrrolidin-1-yl)-2-oxoethyl)-6-oxo-5-phenyl-1,6-dihydropyridine-3-carboxamide]		< 1	
	N#C[C@@H]1CC(F)(F)CN1C(=O)CNC(=O)c1ccncc1C1CC1 [Compound 24, (S)—N-(2-(2-cyano-4,4-difluoropyrrolidin-1-yl)-2-oxoethyl)-3-cyclopropylisonicotinamide]	< 1	< 1	
	N#C[C@@H]1CC(F)(F)CN1C(=O)CNC(=O)c1ccncc1-c1ccc(F)cc1 [Compound 52, (S)—N-(2-(2-cyano-4,4-difluoropyrrolidin-1-yl)-2-oxoethyl)-3-(4-fluorophenyl)isonicotinamide]	< 1		
1 to 10	N#C[C@@H]1CC(F)(F)CN1C(=O)CNC(=O)c1c[nH]c(=O)c2ccccc12 [Example 1, (S)—N-(2-(2-cyano-4,4-difluoropyrrolidin-1-yl)-2-oxoethyl)-1-oxo-1,2-dihydroisoquinoline-4-carboxamide]		< 1	
	C=C(c1ccccc1)c1cnccc1C(=O)NCC(=O)N1CC(F)(F)C[C@H]1C#N [Compound 122, (S)—N-(2-(2-cyano-4,4-difluoropyrrolidin-1-yl)-2-oxoethyl)-3-(1-phenylvinyl)isonicotinamide]			< 1
	N#C[C@@H]1CC(F)(F)CN1C(=O)CNC(=O)c1c[nH]c(=O)cc1-c1ccc(F)cc1 [Compound 109, (S)—N-(2-(2-cyano-4,4-difluoropyrrolidin-1-yl)-2-oxoethyl)-4-(4-fluorophenyl)-6-oxo-1,6-dihydropyridine-3-carboxamide]		< 1	< 1

SMILES	IC50 [3] [µM]	IC50 [1, 4] [µM]	IC50 [2] [µM]	IC50 [1, 5] [µM]
N#C[C@@H]1CC(F)(F)CN1C(=O)CNC(=O)c1ccncc1-c1ccccc1 [Compound 13, (S)—N-(2-(2-cyano-4,4-difluoropyrrolidin-1-yl)-2-oxoethyl)-3-phenylisonicotinamide]	> 10	< 1	< 1	
